Patent publication US20010053333A1, “Antimicrobial flash-dry disinfectant aerosol” (priority 2000, published 2001)

Assay: Evaporation time for various aerosol sterilizer
Format: physicochemical
Text: Evaporation Time for Various Aerosol Sterilizer

Question: With `O` [H2O] as the compound, how does the “Evaporation Time: state” value (1 minute) read?
Answer: The value was “wet”.

Question: And the “Evaporation Time: state” value (2 minutes)?
Answer: The value was “wet”.

Question: And the “Evaporation Time: state” value (5 minutes)?
Answer: Its value is “humid”.

Question: And the “Evaporation Time: state” value (15 minutes)?
Answer: Its value is “droplets”.

Question: What about the “Evaporation Time: state” value (30 minutes) of the same compound?
Answer: Its value is “droplets”.

Question: What about the “Evaporation Time: state” value (40 minutes) of the same compound?
Answer: The value was “droplets”.

Question: What about the “Evaporation Time: state” value (45 minutes) of the same compound?
Answer: Its value is “dry”.
